Reference: patent US9745324B2, “Iminothiadiazepane dioxide compounds as BACE inhibitors, compositions, and their use” (Merck Sharp & Dohme Corp., priority 2013, dated 2017)

Columns and labels:
[1] = target: soluble human BACE1 catalytic domain (Homo sapiens (Human), UniProt P56817); assay: BACE1 HTRF FRET Assay; format: biochemical; settings: Ki calculated from IC50 using the Cheng-Prusoff equation; QSY7-APPswe-Eu substrate, pH 5.0
Text: Reagents: Na^+-Acetate pH 5.0; 1% Brij-35; Glycerol; Dimethyl Sulfoxide (DMSO); Recombinant human soluble BACE1 catalytic domain (>95% pure); APP Swedish mutant peptide substrate (QSY7-APP^swe-Eu): QSY7-[…]-Europium-amide (SEQ ID 1).
A homogeneous time-resolved FRET assay can be used to determine IC50 values for inhibitors of the soluble human BACE1 catalytic domain. This assay monitors the increase of 620 nm fluorescence that resulted from BACE1 cleavage of an APPswedish APP^swe mutant peptide FRET substrate (QSY7-[…]-Europium-amide (SEQ ID 1)). This substrate contains an N-terminal QSY7 moiety that serves as a quencher of the C-terminal Europium fluorophore (620 nm Em). […] Inhibition of BACE1 cleavage of the QSY7-APP^swe-Eu substrate by inhibitors is manifested as a suppression of 620 nm fluorescence.
Varying concentrations of inhibitors at 3× the final desired concentration in a volume of 10 ul are preincubated with purified human BACE1 catalytic domain (3 nM in 10 μl) for 30 minutes at 30° C. in reaction buffer containing 20 mM Na-Acetate pH 5.0, 10% glycerol, 0.1% Brij-35 and 7.5% DSMO. Reactions are initiated by addition of 10 μl of 600 nM QSY7-APP^swe-Eu substrate (200 nM final) to give a final reaction volume of 30 μl in a 384 well Nunc HTRF plate. The reactions are incubated at 30° C. for 1.5 hours. The 620 nm fluorescence is then read on a Rubystar HTRF plate reader (BMG Labtechnologies) using a 50 millisecond delay followed by a 400 millisecond acquisition time window. Inhibitor IC50 values are derived from non-linear regression analysis of concentration response curves.

[2] = target: purified human autoBACE-2 (Homo sapiens, UniProt Q9Y5Z0); assay: BACE-2 Assay (BACE-HTRF assay); format: biochemical; settings: Ki calculated from IC50 using the Cheng-Prusoff equation; QSY7-EISEVNLDAEFC-Eu-amide substrate, pH 5.0; read-out: BACE2 Ki
Procedure: DMSO is present at 5% final concentration in the assay. Following laser excitation of sample wells at 320 nm, the fluorescence signal at 620 nm is collected for 400 ms following a 50 μs delay on a RUBYstar HTRF plate reader (BMG Labtechnologies). Raw RFU data is normalized to maximum (1.0 nM BACE/DMSO) and minimum (no enzyme/DMSO) RFU values. […] The Ki values are calculated from the IC50 using the Cheng-Prusoff equation.

Chain of purified human autoBACE-2 (Q9Y5Z0 63-518 limits assumed): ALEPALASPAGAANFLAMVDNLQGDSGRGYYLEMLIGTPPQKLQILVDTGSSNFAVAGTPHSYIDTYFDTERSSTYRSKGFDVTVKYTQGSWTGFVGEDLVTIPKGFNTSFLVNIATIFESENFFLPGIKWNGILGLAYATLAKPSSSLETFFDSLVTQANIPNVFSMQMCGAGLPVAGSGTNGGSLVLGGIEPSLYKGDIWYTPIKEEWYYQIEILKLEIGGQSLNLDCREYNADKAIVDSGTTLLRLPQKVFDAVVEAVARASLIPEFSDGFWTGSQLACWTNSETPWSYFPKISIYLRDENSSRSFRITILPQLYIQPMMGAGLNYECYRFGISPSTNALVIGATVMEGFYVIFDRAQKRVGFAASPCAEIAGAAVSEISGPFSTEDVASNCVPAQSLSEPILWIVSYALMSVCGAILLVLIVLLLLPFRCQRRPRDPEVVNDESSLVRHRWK
Chain of soluble human BACE1 catalytic domain (P56817 75-416): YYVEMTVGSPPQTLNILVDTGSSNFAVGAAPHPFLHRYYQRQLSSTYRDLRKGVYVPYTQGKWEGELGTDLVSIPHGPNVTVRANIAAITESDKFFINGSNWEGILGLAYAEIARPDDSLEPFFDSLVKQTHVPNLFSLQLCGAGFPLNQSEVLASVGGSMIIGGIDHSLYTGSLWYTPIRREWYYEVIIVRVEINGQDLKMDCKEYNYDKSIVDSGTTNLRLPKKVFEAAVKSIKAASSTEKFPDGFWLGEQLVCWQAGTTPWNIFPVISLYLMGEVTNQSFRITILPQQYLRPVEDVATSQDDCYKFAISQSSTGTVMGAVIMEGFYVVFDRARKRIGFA

Row | SMILES | Ki [1] | Ki [2]
1 | CN1C[C@@](C)(c2cc(NC(=O)c3ccc(F)cn3)ccc2F)NC(=N)C(C)(C)S1(=O)=O [Example 3, 5-fluoro-N-{4-fluoro-3-[(4R)-6-imino-2,4,7,7-tetramethyl-1,1-dioxido-1,2,5-thiadiazepan-4-yl]phenyl}pyridine-2-carboxamide] | 54 nM | 13 nM
2 | CN1C[C@@](C)(c2cc(NC(=O)c3ccc(C(F)(F)F)cn3)ccc2F)NC(=N)C(C)(C)S1(=O)=O [Example 5, N-{4-fluoro-3-[(4R)-6-imino-2,4,7,7-tetramethyl-1,1-dioxido-1,2,5--thiadiazepan-4-yl]phenyl}-5-(trifluoromethyl)pyridine-2-carboxamide] | 59 nM | 115 nM
3 | CN1C[C@@](C)(c2cc(NC(=O)c3ccc(Cl)cn3)ccc2F)NC(=N)C(C)(C)S1(=O)=O [Example 7, 5-chloro-N-{4-fluoro-3-[(4R)-6-imino-2,4,7,7-tetramethyl-1,1-dioxido-1,2,5-thiadiazepan-4-yl]phenyl}pyridine-2-carboxamide] | – | 8 nM
4 | COc1cnc(C(=O)Nc2ccc(F)c([C@]3(C)CN(C)S(=O)(=O)C(C)(C)C(=N)N3)c2)c(C)c1 [Example 9, N-{4-fluoro-3-[(4R)-6-imino-2,4,7,7-tetramethyl-1,1-dioxido-1,2,5-thiadiazepan-4-yl]phenyl}-5-methoxy-3-methylpyridine-2-carboxamide] | 68 nM | 32 nM
5 | COc1cnc(C(=O)Nc2ccc(F)c([C@]3(C)CN(C)S(=O)(=O)C(C)(C)C(=N)N3)c2)c(C)n1 [Example 10, N-{4-fluoro-3-[(4R)-6-imino-2,4,7,7-tetramethyl-1,1-dioxido-1,2,5-thiadiazepan-4-yl]phenyl}-5-methoxy-3-methylpyrazine-2-carboxamide] | 62 nM | 59 nM

Results, then the molecule that gave them:

Row | Ki [1] | Ki [2] | SMILES
6 | 37 nM | 102 nM | COc1cnc(C(=O)Nc2ccc(F)c([C@]3(C)CN(C)S(=O)(=O)C(C)(C)C(=N)N3)c2)cn1 [Example 1, N-{4-fluoro-3-[(4R)-6-imino-2,4,7,7-tetramethyl-1,1-dioxido-1,2,5-thiadiazepan-4-yl]phenyl}-5-methoxypyrazine-2-carboxamide]
7 | 46 nM | 6 nM | CN1C[C@@](C)(c2cc(NC(=O)c3ccn(C(F)F)n3)ccc2F)NC(=N)C(C)(C)S1(=O)=O [Example 2, 1-(difluoromethyl)-N-{4-fluoro-3-[(4R)-6-imino-2,4,7,7-tetramethyl-1,1-dioxido-1,2,5-thiadiazepan-4-yl]phenyl}-1H-pyrazole-3-carboxamide]
8 | 32 nM | 144 nM | CN1C[C@@](C)(c2cc(NC(=O)c3ccc(OC(F)F)cn3)ccc2F)NC(=N)C(C)(C)S1(=O)=O [Example 4, 5-(difluoromethoxy)-N-{4-fluoro-3-[(4R)-6-imino-2,4,7,7-tetramethyl-1,1-dioxido-1,2,5-thiadiazepan-4-yl]phenyl}pyridine-2-carboxamide]
9 | 33 nM | 44 nM | COc1ccc(C(=O)Nc2ccc(F)c([C@]3(C)CN(C)S(=O)(=O)C(C)(C)C(=N)N3)c2)nc1 [Example 6, N-{4-fluoro-3-[(4R)-6-imino-2,4,7,7-tetramethyl-1,1-dioxido-1,2,5-thiadiazepan-4-yl]phenyl}-5-methoxypyridine-2-carboxamide]
10 | 22 nM | 32 nM | CN1C[C@@](C)(c2cc(NC(=O)c3ccc(C#N)cn3)ccc2F)NC(=N)C(C)(C)S1(=O)=O [Example 8, 5-cyano-N-{4-fluoro-3-[(4R)-6-imino-2,4,7,7-tetramethyl-1,1-dioxido-1,2,5-thiadiazepan-4-yl]phenyl}pyridine-2-carboxamide]
11 | 24 nM | 28 nM | Cc1cc(C#N)cnc1C(=O)Nc1ccc(F)c([C@]2(C)CN(C)S(=O)(=O)C(C)(C)C(=N)N2)c1 [Example 11, 5-cyano-N-{4-fluoro-3-[(4R)-6-imino-2,4,7,7-tetramethyl-1,1-dioxido-1,2,5-thiadiazepan-4-yl]phenyl}-3-methylpyridine-2-carboxamide]
